Laboratory results published in patent publication US9708318B2, “Bicyclic heterocycles as FGFR4 inhibitors” (Incyte Corporation, priority 2015, dated 2017).
Read-outs that look alike come from different tables or passages of the source.

Experiments:
FGFR2 = FGFR2 (Homo sapiens (Human), UniProt P21802); test: FGFR Enzymatic Assay (FRET peptide phosphorylation), FGFR2; assay type: biochemical
Description: (§1) The inhibitor potency of the exemplified compounds was measured in an enzyme assay that measures peptide phosphorylation using FRET measurements to detect product formation. Inhibitors were serially diluted in DMSO and a volume of 0.5 μL was transferred to the wells of a 384-well plate.
(§2) The enzymes were purchased from Millipore or Invitrogen.
(§3) GraphPad prism3 was used to analyze the data.

FGFR3 enzyme = FGFR3 enzyme (Homo sapiens (Human), UniProt P22607); test: FGFR Enzymatic Assay (FRET peptide phosphorylation), FGFR3; assay type: biochemical; settings: for IC50: read-out: FGFR3 IC50; for FGFR1/FGFR3 IC50 ratio: FGFR3 selectivity
Description: as §1, §3

FGFR4 = FGFR4 (Homo sapiens (Human), UniProt P22455); test: FGFR Enzymatic Assay (FRET peptide phosphorylation), FGFR4; assay type: biochemical; settings: for FGFR1/FGFR4 IC50 ratio / FGFR2/FGFR4 IC50 ratio / FGFR3/FGFR4 IC50 ratio: FGFR4 selectivity
Description: as §1, §2, §3

FGFR1 = FGFR1 (Homo sapiens (Human), UniProt P11362); test: FGFR Enzymatic Assay (FRET peptide phosphorylation), FGFR1
[1] = pre-incubated for 5 to 10 minutes
[2] = read-out: FGFR1 IC50, pre-incubated for 5 to 10 minutes
[3] = read-out: FGFR1 IC50, pre-incubated for 4 hours
[4] = FGFR1 IC50 (nM), pre-incubated for 5 to 10 minutes
[5] = FGFR1 IC50 (nM), pre-incubated for 4 hours

FGFR1, sequence (P11362 22-822): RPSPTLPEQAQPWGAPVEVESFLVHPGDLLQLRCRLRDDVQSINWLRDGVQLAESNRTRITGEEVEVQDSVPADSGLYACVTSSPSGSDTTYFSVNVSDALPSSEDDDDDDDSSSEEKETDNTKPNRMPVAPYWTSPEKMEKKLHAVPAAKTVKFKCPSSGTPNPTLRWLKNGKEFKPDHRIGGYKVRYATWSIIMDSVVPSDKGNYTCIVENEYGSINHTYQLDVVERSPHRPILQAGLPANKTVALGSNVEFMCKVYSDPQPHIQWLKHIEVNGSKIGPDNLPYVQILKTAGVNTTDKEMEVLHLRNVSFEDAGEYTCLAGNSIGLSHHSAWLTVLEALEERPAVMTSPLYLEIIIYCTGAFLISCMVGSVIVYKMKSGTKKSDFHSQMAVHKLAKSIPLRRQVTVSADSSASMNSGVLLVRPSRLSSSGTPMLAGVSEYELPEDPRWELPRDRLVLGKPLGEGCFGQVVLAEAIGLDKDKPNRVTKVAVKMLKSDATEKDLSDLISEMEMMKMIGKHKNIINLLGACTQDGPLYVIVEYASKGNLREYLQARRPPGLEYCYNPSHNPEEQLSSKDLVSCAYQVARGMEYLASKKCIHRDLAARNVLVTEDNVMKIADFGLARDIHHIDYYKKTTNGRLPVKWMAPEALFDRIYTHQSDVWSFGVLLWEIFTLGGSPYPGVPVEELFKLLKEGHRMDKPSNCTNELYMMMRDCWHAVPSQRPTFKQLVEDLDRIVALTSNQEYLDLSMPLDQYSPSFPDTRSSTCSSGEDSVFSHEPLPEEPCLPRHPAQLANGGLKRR
FGFR4, sequence (P22455 22-802): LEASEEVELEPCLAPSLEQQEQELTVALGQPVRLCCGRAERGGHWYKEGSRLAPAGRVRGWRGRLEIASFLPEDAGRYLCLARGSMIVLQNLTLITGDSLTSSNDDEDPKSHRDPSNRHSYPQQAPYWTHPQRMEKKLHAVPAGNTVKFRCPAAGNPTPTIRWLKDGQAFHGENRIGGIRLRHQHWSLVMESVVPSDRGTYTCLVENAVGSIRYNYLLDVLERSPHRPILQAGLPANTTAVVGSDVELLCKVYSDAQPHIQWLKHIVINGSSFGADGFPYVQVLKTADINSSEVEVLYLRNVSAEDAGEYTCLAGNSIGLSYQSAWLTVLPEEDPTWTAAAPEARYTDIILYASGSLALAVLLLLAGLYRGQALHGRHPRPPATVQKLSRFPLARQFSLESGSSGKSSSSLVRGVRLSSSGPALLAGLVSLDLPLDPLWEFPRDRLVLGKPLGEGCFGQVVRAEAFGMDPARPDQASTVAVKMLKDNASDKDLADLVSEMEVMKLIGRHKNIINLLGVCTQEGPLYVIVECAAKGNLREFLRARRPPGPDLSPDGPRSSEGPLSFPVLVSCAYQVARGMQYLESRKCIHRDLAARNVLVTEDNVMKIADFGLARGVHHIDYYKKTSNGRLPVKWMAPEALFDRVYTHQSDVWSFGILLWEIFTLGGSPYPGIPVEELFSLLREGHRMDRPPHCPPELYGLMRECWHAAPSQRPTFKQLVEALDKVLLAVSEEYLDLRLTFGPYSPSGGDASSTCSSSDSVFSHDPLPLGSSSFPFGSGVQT
FGFR2, sequence (P21802 22-821): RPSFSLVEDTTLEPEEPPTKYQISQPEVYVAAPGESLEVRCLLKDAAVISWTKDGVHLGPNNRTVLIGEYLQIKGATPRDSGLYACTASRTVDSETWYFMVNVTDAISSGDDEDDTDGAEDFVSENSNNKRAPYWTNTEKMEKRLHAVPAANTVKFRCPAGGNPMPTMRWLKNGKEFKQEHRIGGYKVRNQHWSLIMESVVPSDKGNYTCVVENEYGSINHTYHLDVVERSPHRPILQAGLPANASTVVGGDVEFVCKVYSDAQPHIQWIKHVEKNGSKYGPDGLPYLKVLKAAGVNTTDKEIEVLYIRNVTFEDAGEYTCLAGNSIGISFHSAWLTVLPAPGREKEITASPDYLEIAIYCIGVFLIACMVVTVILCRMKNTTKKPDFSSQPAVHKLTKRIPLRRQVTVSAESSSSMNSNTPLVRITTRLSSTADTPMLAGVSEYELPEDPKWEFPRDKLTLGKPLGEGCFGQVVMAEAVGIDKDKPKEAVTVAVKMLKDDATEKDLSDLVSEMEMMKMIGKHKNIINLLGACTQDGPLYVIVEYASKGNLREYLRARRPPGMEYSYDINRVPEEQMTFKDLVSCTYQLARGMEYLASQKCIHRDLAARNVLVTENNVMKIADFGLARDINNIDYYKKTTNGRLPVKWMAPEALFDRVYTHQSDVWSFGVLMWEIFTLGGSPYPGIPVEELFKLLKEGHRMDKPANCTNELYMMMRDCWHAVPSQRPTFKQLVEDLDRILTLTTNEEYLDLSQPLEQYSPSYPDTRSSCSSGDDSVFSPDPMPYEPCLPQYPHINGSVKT
FGFR3 enzyme, sequence (P22607 23-806): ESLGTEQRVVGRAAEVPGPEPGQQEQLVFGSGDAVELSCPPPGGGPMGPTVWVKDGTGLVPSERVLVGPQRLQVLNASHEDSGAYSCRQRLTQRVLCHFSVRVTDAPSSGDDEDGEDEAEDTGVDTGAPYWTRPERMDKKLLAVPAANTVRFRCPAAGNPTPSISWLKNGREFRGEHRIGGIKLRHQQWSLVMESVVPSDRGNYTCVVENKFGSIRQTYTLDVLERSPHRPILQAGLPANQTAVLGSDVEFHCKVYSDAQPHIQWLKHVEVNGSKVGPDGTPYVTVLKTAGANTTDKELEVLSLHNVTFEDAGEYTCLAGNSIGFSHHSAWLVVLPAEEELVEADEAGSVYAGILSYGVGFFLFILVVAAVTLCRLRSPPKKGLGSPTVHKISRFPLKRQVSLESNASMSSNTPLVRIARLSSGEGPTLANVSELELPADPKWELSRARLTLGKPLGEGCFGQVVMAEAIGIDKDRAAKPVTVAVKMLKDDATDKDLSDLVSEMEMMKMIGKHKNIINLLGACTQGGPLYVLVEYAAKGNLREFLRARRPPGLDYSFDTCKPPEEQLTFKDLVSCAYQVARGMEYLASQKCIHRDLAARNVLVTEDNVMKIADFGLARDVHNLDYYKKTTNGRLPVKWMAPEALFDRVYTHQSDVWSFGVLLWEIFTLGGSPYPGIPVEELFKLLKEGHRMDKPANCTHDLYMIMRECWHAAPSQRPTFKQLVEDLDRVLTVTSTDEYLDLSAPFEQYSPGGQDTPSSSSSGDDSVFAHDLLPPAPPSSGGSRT

Structure (SMILES)	IC50 (FGFR2; [1]) [nM]	IC50 (FGFR2; pre-incubated for 4 hours) [nM]	FGFR1/FGFR4 IC50 ratio (FGFR4; [1])	FGFR2/FGFR4 IC50 ratio (FGFR4; [1])	FGFR3/FGFR4 IC50 ratio (FGFR4; [1])	FGFR1/FGFR4 IC50 ratio (FGFR4; pre-incubated for 4 hours)	FGFR2/FGFR4 IC50 ratio (FGFR4; pre-incubated for 4 hours)	FGFR3/FGFR4 IC50 ratio (FGFR4; pre-incubated for 4 hours)	IC50 (FGFR4; [1]) [nM]	IC50 (FGFR4; pre-incubated for 4 hours) [nM]	IC50 (FGFR1; [2]) [nM]	IC50 (FGFR1; [3]) [nM]	IC50 (FGFR3 enzyme; [1]) [nM]	IC50 (FGFR3 enzyme; pre-incubated for 4 hours) [nM]	FGFR1/FGFR3 IC50 ratio (FGFR3 enzyme; pre-incubated for 4 hours)	IC50 (FGFR1; [5]) [nM]	IC50 (FGFR3 enzyme) [nM]	IC50 (FGFR1; [4]) [nM]
COc1cc(OC)c(F)c(N2Cc3cnc(-c4cc(N)ccc4C)cc3C3(CC3)C2=O)c1F [Example 1, 6′-(5-amino-2-methylphenyl)-2′-(2,6-difluoro-3,5-dimethoxyphenyl)-1′H-spiro[cyclopropane-1,4′-[2,7]naphthyridin]-3′(2′H)-one]	> 200	> 200	>25	>25	>50	>25	>25	>25	30 to 200	30 to 200	> 200	> 200					> 200	
COc1cc(OC)c(F)c(N2Cc3cnc(-c4cc(N)ccc4C#N)cc3C3(CC3)C2=O)c1F [Example 3, 4-amino-2-(2′-(2,6-difluoro-3,5-dimethoxyphenyl)-3′-oxo-2′,3′-dihydro-1′H-spiro[cyclopropane-1,4′-[2,7]naphthyridine]-6′-yl)benzonitrile]	> 200	> 200	>25	>25	>25	>25	>25	>10	10 to 30	10 to 30	> 200	> 200	> 200	> 200				
COc1cc(OC)c(F)c(N2Cc3cnc(-c4cncc(N)c4)cc3C3(CC3)C2=O)c1F [Example 4, 6′-(5-aminopyridin-3-yl)-2′-(2,6-difluoro-3,5-dimethoxyphenyl)-1′H-spiro[cyclopropane-1,4′-[2,7]naphthyridin]-3′(2′H)-one]	10 to 30	30 to 200	>10	>10	>5	>25	>10	>10	< 10	< 10			10 to 30	30 to 200	>1	30 to 200		30 to 200
COc1cc(OC)c(F)c(N2Cc3cnc(-c4cncc(F)c4)cc3C3(CC3)C2=O)c1F [Example 5, 2′-(2,6-difluoro-3,5-dimethoxyphenyl)-6′-(5-fluoropyridin-3-yl)-1′H-spiro[cyclopropane-1,4′-[2,7]naphthyridin]-3′(2′H)-one]	10 to 30	10 to 30	>10	>5	>4	>10	>5	>1	< 10	< 10			10 to 30	10 to 30	>3	30 to 200		30 to 200
COc1cc(OC)c(F)c(N2Cc3cnc(-c4cncc(N5CCOCC5)c4)cc3C3(CC3)C2=O)c1F [Example 6, 2′-(2,6-difluoro-3,5-dimethoxyphenyl)-6′-(5-morpholinopyridin-3-yl)-1′H-spiro[cyclopropane-1,4′-[2,7]naphthyridin]-3′(2′H)-one]	> 200	> 200	>100	>100	>50	>100	>100	>25	< 10	< 10	> 200	> 200	30 to 200	30 to 200	>3			
COc1cc(OC)c(F)c(N2Cc3cnc(-c4cc(N)cnc4C)cc3C3(CC3)C2=O)c1F [Example 7, 6′-(5-amino-2-methylpyridin-3-yl)-2′-(2,6-difluoro-3,5-dimethoxyphenyl)-1′H-spiro[cyclopropane-1,4′-[2,7]naphthyridin]-3′(2′H)-one]	> 200	> 200	>25	>10	>10	>50	>25	>25	30 to 200	30 to 200	> 200	> 200	> 200	> 200	>1			
COc1cc(OC)c(F)c(N2Cc3cnc(-c4cncc(C#N)c4)cc3C3(CC3)C2=O)c1F [Example 8, 5-(2′-(2,6-difluoro-3,5-dimethoxyphenyl)-3′-oxo-2′,3′-dihydro-1′H-spiro[cyclopropane-1,4′-[2,7]naphthyridine]-6′-yl)nicotinonitrile]	> 200	> 200	>50	>10	>10	>50	>10	>10	10 to 30	10 to 30	> 200	> 200	30 to 200	30 to 200	>5			
COc1cc(OC)c(F)c(N2Cc3cnc(-c4cncc(Cl)c4)cc3C3(CC3)C2=O)c1F [Example 11, 6′-(5-chloropyridin-3-yl)-2′-(2,6-difluoro-3,5-dimethoxyphenyl)-1′H-spiro[cyclopropane-1,4′-[2,7]naphthyridin]-3′(2′H)-one]	> 200	> 200	>50	>20	>25	>25	>25	>10	10 to 30	10 to 30	> 200	> 200	30 to 200	> 200	>1			

The next lines start with results.

IC50 (FGFR2; [1]) [nM]	IC50 (FGFR2; pre-incubated for 4 hours) [nM]	FGFR1/FGFR4 IC50 ratio (FGFR4; [1])	FGFR2/FGFR4 IC50 ratio (FGFR4; [1])	FGFR3/FGFR4 IC50 ratio (FGFR4; [1])	FGFR1/FGFR4 IC50 ratio (FGFR4; pre-incubated for 4 hours)	FGFR2/FGFR4 IC50 ratio (FGFR4; pre-incubated for 4 hours)	FGFR3/FGFR4 IC50 ratio (FGFR4; pre-incubated for 4 hours)	IC50 (FGFR4; [1]) [nM]	IC50 (FGFR4; pre-incubated for 4 hours) [nM]	IC50 (FGFR1; [2]) [nM]	IC50 (FGFR1; [3]) [nM]	IC50 (FGFR3 enzyme; [1]) [nM]	IC50 (FGFR3 enzyme; pre-incubated for 4 hours) [nM]	FGFR1/FGFR3 IC50 ratio (FGFR3 enzyme; pre-incubated for 4 hours)	IC50 (FGFR1; [5]) [nM]	Structure (SMILES)	IC50 (FGFR3 enzyme) [nM]	IC50 (FGFR1; [4]) [nM]
> 200	> 200	>10	>10	>10	>10	>10	>10	30 to 200	30 to 200	> 200	> 200	> 200	> 200			COc1cc(OC)c(F)c(N2Cc3cnc(-c4cc(N)c(F)cc4C)cc3C3(CC3)C2=O)c1F [Example 2, 6′-(5-amino-4-fluoro-2-methylphenyl)-2′-(2,6-difluoro-3,5-dimethoxyphenyl)-1′H-spiro[cyclopropane-1,4′-[2,7]naphthyridin]-3′(2′H)-one]		
10 to 30	10 to 30	>25	>10	>10	>25	>25	>10	< 10	< 10			10 to 30	10 to 30	>1	30 to 200	COc1cncc(-c2cc3c(cn2)CN(c2c(F)c(OC)cc(OC)c2F)C(=O)C32CC2)c1 [Example 10, 2′-(2,6-difluoro-3,5-dimethoxyphenyl)-6′-(5-methoxypyridin-3-yl)-1′H-spiro[cyclopropane-1,4′-[2,7]naphthyridin]-3′(2′H)-one]		30 to 200
